Assay results from PubChem BioAssay AID2060501 (Molecular Pharmacology Branch, DTP, NCI, 2025).
Each block holds one compound with its values, some of them ahead of it.

System: 282377-053-R-J1-PDC complex spheroids, viability
Assay: Anticancer human tumor 282377-053-R-J1-PDC patient-derived colon adenocarcinoma cell line growth inhibition [GQUAD]
Conditions: for IC50: curve of first compound; for viability, T/C: stronger effect = lower value
Summary of the method: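 Viability of tumor cells grown as complex spheroids with endothelial and stromal cells, exposed to drug combinations. Top concentration at or near clinical Cmax (else 10 microM), diluted in half-log increments.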

[1] = second compound 0.0316 µM, first compound 0.0316 µM
[2] = second compound 0.0316 µM, first compound 0.1 µM
[3] = second compound 0.0316 µM, first compound 0.316 µM
[4] = second compound 0.0316 µM, first compound 1 µM
[5] = second compound 0.0316 µM, first compound 3.16 µM
[6] = second compound 0.0316 µM, first compound 10 µM
[7] = second compound 0.1 µM, first compound 0.0316 µM
[8] = second compound 0.1 µM, first compound 0.1 µM
[9] = second compound 0.1 µM, first compound 0.316 µM
[10] = second compound 0.1 µM, first compound 1 µM
[11] = second compound 0.1 µM, first compound 3.16 µM
[12] = second compound 0.1 µM, first compound 10 µM
[13] = second compound 0.316 µM, first compound 0.0316 µM
[14] = second compound 0.316 µM, first compound 0.1 µM
[15] = second compound 0.316 µM, first compound 0.316 µM
[16] = second compound 0.316 µM, first compound 1 µM
[17] = second compound 0.316 µM, first compound 3.16 µM
[18] = second compound 0.316 µM, first compound 10 µM
[19] = second compound 1 µM, first compound 0.0316 µM
[20] = second compound 1 µM, first compound 0.1 µM
[21] = second compound 1 µM, first compound 0.316 µM
[22] = second compound 1 µM, first compound 1 µM
[23] = second compound 1 µM, first compound 3.16 µM
[24] = second compound 1 µM, first compound 10 µM
[25] = second compound 3.16 µM, first compound 0.0316 µM
[26] = second compound 3.16 µM, first compound 0.1 µM
[27] = second compound 3.16 µM, first compound 0.316 µM
[28] = second compound 3.16 µM, first compound 1 µM
[29] = second compound 3.16 µM, first compound 3.16 µM
[30] = second compound 3.16 µM, first compound 10 µM
[31] = second compound 10 µM, first compound 0.0316 µM
[32] = second compound 10 µM, first compound 0.1 µM
[33] = second compound 10 µM, first compound 0.316 µM
[34] = second compound 10 µM, first compound 1 µM
[35] = second compound 10 µM, first compound 3.16 µM
[36] = second compound 10 µM, first compound 10 µM
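Note: spheroids exposed to compounds for 7 days before readout.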
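Throughout, for viability, T/C: percent of vehicle DMSO control viability with 100% = untreated-like growth.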

SMILES: CC1COCCN1c1cc(C2(S(C)(=N)=O)CC2)nc(-c2ccnc3[nH]ccc23)n1 (stereo unspecified) + CN(C)c1ccc(Nc2c3ccc(NC(=O)CCN4CCCC4)cc3nc3cc(NC(=O)CCN4CCCC4)ccc23)cc1
IC50 (second compound 0.0316 µM): 8.45 µM | IC50 (second compound 0.1 µM): 6.78 µM | IC50 (second compound 0.316 µM): 6.09 µM | IC50 (second compound 1 µM): > 10 µM | IC50 (second compound 3.16 µM): > 10 µM | IC50 (second compound 10 µM): > 10 µM | viability, T/C [1]: 102% | viability, T/C [2]: 90.3% | viability, T/C [3]: 73% | viability, T/C [4]: 79.6% | viability, T/C [5]: 67.8% | viability, T/C [6]: 42.2% | viability, T/C [7]: 95.1% | viability, T/C [8]: 77.2% | viability, T/C [9]: 81.2% | viability, T/C [10]: 76.5% | viability, T/C [11]: 69.3% | viability, T/C [12]: 40.5% | viability, T/C [13]: 85.5% | viability, T/C [14]: 83.3% | viability, T/C [15]: 74.4% | viability, T/C [16]: 76.2% | viability, T/C [17]: 61.8% | viability, T/C [18]: 40.8% | viability, T/C [19]: 89.8% | viability, T/C [20]: 83.7% | viability, T/C [21]: 94.2% | viability, T/C [22]: 67.6% | viability, T/C [23]: 58.8% | viability, T/C [24]: 46.2% | viability, T/C [25]: 86% | viability, T/C [26]: 89.2% | viability, T/C [27]: 86.3% | viability, T/C [28]: 68.5% | viability, T/C [29]: 64.4% | viability, T/C [30]: 49.6% | viability, T/C [31]: 82.7% | viability, T/C [32]: 88.4% | viability, T/C [33]: 116% | viability, T/C [34]: 59.7% | viability, T/C [35]: 80% | viability, T/C [36]: 56%

IC50 (second compound 0.0316 µM): > 10 µM | IC50 (second compound 0.1 µM): > 10 µM | IC50 (second compound 0.316 µM): > 10 µM | IC50 (second compound 1 µM): > 10 µM | IC50 (second compound 3.16 µM): > 10 µM | IC50 (second compound 10 µM): 1.25 µM
SMILES: Cc1cccc(N(C)C(=O)C2C(O)CCN2c2nc(C)cc(C(F)(F)F)c2C#N)c1 (stereo unspecified) + Cc1cnc(CNC(=O)c2c(=O)c3ccc(N4CCCN(C)CC4)nc3n3c2sc2ccccc23)cn1
viability, T/C [1]: 114% | viability, T/C [2]: 105% | viability, T/C [3]: 108% | viability, T/C [4]: 80.3% | viability, T/C [5]: 95.1% | viability, T/C [6]: 93.1% | viability, T/C [7]: 96.1% | viability, T/C [8]: 99.3% | viability, T/C [9]: 95.5% | viability, T/C [10]: 88% | viability, T/C [11]: 88.8% | viability, T/C [12]: 93.6% | viability, T/C [13]: 95% | viability, T/C [14]: 85.6% | viability, T/C [15]: 98.8% | viability, T/C [16]: 77% | viability, T/C [17]: 93.4% | viability, T/C [18]: 79.7% | viability, T/C [19]: 66.3% | viability, T/C [20]: 60.6% | viability, T/C [21]: 64.1% | viability, T/C [22]: 60.3% | viability, T/C [23]: 65.9% | viability, T/C [24]: 67.1% | viability, T/C [25]: 54.6% | viability, T/C [26]: 51% | viability, T/C [27]: 56.2% | viability, T/C [28]: 58.8% | viability, T/C [29]: 56.6% | viability, T/C [30]: 58.5% | viability, T/C [31]: 50.6% | viability, T/C [32]: 53.6% | viability, T/C [33]: 50.6% | viability, T/C [34]: 52.2% | viability, T/C [35]: 46.4% | viability, T/C [36]: 35.5%

SMILES: CC1COCCN1c1cc(-c2ccnn2C)c2ccnc(-c3ccn[nH]3)c2n1 (stereo unspecified) + CN(C)c1ccc(Nc2c3ccc(NC(=O)CCN4CCCC4)cc3nc3cc(NC(=O)CCN4CCCC4)ccc23)cc1
IC50 (second compound 0.0316 µM): 0.612 µM | IC50 (second compound 0.1 µM): 0.717 µM | IC50 (second compound 0.316 µM): 0.48 µM | IC50 (second compound 1 µM): 0.559 µM | IC50 (second compound 3.16 µM): 1.08 µM | IC50 (second compound 10 µM): 0.745 µM | viability, T/C [1]: 86.5% | viability, T/C [2]: 88% | viability, T/C [3]: 61.9% | viability, T/C [4]: 40.6% | viability, T/C [5]: 34.6% | viability, T/C [6]: 26.5% | viability, T/C [7]: 91% | viability, T/C [8]: 75.7% | viability, T/C [9]: 67.1% | viability, T/C [10]: 41.7% | viability, T/C [11]: 32.8% | viability, T/C [12]: 24.8% | viability, T/C [13]: 82% | viability, T/C [14]: 65.4% | viability, T/C [15]: 56.8% | viability, T/C [16]: 38.3% | viability, T/C [17]: 38.5% | viability, T/C [18]: 26.4% | viability, T/C [19]: 79.1% | viability, T/C [20]: 101% | viability, T/C [21]: 67.3% | viability, T/C [22]: 36.7% | viability, T/C [23]: 32.6% | viability, T/C [24]: 27.8% | viability, T/C [25]: 84.5% | viability, T/C [26]: 74% | viability, T/C [27]: 67.4% | viability, T/C [28]: 48.6% | viability, T/C [29]: 38.6% | viability, T/C [30]: 26.7% | viability, T/C [31]: 85.1% | viability, T/C [32]: 75.4% | viability, T/C [33]: 64.1% | viability, T/C [34]: 42.7% | viability, T/C [35]: 38.6% | viability, T/C [36]: 29%
